Assay results taken from publication PMC7449170, “ATI-2173, a Novel Liver-Targeted Non-Chain-Terminating Nucleotide for Hepatitis B Virus Cure Regimens” (Antimicrobial Agents and Chemotherapy, 2020).

How the values were obtained:
[1] = Pharmacokinetics and tissue concentration in rats after single oral dose; format: in vivo, Sprague-Dawley rats; conditions: single oral 50 mg/kg ATI-2173 vs 25 mg/kg clevudine
Description: Female Sprague Dawley (SD) rats (from Envigo, NJ), 225 to 249 g, were used in the studies. Clevudine and ATI-2173 were administered by oral gavage (p.o.) in carboxyl methyl cellulose/PEG 400/Tween 20 (0.5%/20%/5%). The oral doses were administered at 25 mg/kg and 50 mg/kg, respectively. Blood samples were collected at 1, 2, 4, 6, 8, and 24 h into lithium-heparin microtainer tubes (BD). Plasma samples were prepared within 30 min after collection by centrifugation at 2,000× rcf for 10 min at 4°C and stored at –80°C before processing for analysis by liquid chromatography-tandem mass spectrometry (LC-MS/MS). Rat organs (skeletal muscle, liver, and heart) were collected from all rats immediately following blood collection at all time points. The tissues were immediately snap-frozen in liquid nitrogen and stored at –80°C before processing for analysis by LC-MS/MS. […]
Samples were maintained at 4°C in a Leap Pal Autosampler (CTC Analytics AG, Zwingen, Switzerland). Plasma concentrations of ATI-2173 and clevudine were determined using qualified methods with an assay range of 10 to 1,000 ng/ml. […] QCs were prepared at 30, 500, and 900 ng/ml and were measured within ± 30% of actual values. […]
Tissue levels were measured according to qualified LC-MS/MS methods with an assay range of 18 to 18,000 ng/g of tissue. […]

[2] = system: hepatitis C virus; assay: Antiviral panel: hepatitis C virus; format: cell-based; conditions: up to 100 μM, data not shown
[3] = system: HBV genotype H (AB179747); assay: microbe, parasite or virus in culture; format: cell-based; conditions: Hepatitis B virus, HepG2
[4] = system: HBV rtN236T; assay: microbe, parasite or virus in culture; format: cell-based; conditions: Hepatitis B virus, HepG2
[5] = system: HBV rtS202G+M204I+M250V; assay: microbe, parasite or virus in culture; format: cell-based; conditions: Hepatitis B virus, HepG2
[6] = system: HBV genotype D (U955551); assay: microbe, parasite or virus in culture; format: cell-based; conditions: Hepatitis B virus, HepG2
[7] = system: HBV genotype A (HE974371); assay: microbe, parasite or virus in culture; format: cell-based; conditions: Hepatitis B virus, HepG2
[8] = Cell viability (CC50) in HepG2.2.15 cells; conditions: human
[9] = system: HBV genotype E (AB091255); assay: microbe, parasite or virus in culture; format: cell-based; conditions: Hepatitis B virus, HepG2
[10] = system: herpes simplex virus 1; assay: Antiviral panel: herpes simplex virus 1; format: cell-based; conditions: up to 100 μM, data not shown
[11] = system: HBV rtM204V; assay: microbe, parasite or virus in culture; format: cell-based; conditions: Hepatitis B virus, HepG2
[12] = Hepatic extraction in portal vein cannulated monkeys; format: in vivo; conditions: cynomolgus monkeys with portal vein cannulation, single oral 20 mg/kg and intravenous 2 mg/kg, data not shown
[13] = system: HBV genotype C (AB246345); assay: microbe, parasite or virus in culture; format: cell-based; conditions: Hepatitis B virus, HepG2
[14] = Protein binding; format: in vitro ADME; conditions: data not shown
[15] = system: HepG2 cells; assay: Mitochondrial toxicity, glucose/galactose assay; conditions: 20 mM glucose or 10 mM galactose, up to 100 μM, day 11
[16] = system: HBV wild type (U95551); assay: Cross-resistance in transfected HepG2 cells, wild type; format: cell-based, Hepatitis B virus; conditions: Hepatitis B virus
[17] = system: influenza virus; format: cell-based
[18] = system: HBV; assay: Serum shift of anti-HBV EC50; format: cell-based, Hepatitis B virus; conditions: data not shown
[19] = system: HBV rtS202G+M204I; assay: microbe, parasite or virus in culture; format: cell-based; conditions: Hepatitis B virus, HepG2
[20] = system: HBV rtV173L+M204I; assay: microbe, parasite or virus in culture; format: cell-based; conditions: Hepatitis B virus, HepG2
[21] = system: respiratory syncytial virus; assay: Antiviral panel: respiratory syncytial virus; format: cell-based; conditions: up to 100 μM, data not shown

Cc1cn(C2OC(COP(=O)(NC(C)C(=O)OC(C)C)Oc3ccccc3)C(O)C2F)c(=O)[nH]c1=O (stereo not drawn) [ATI-2173]
Liver exposure to the 5′-triphosphate versus equimolar clevudine [1]: nearly identical liver exposure
Antiviral efficacy [2]: no detectable efficacy
EC50 [3]: 718 nM
EC50 [4]: 386 nM
EC50 [5]: > 10000 nM
EC50 [6]: 234 nM
EC50 [7]: 416 nM
CC50 [8]: > 10000 nM
EC50 [9]: 427 nM
Antiviral efficacy [10]: no detectable efficacy
EC50 [11]: 162 nM
Hepatic extraction [12]: 82%
EC50 [13]: 227 nM
fraction unbound [14]: ~0.45
Mitochondrial toxicity (cell viability in glucose versus galactose medium) [15]: no apparent mitochondrial toxicity
EC50 [16]: 601 nM
Antiviral efficacy [17]: no detectable efficacy
Serum shift in EC50 [18]: no clear serum shift
EC50 [19]: > 10000 nM
EC50 [20]: > 10000 nM
Antiviral efficacy [21]: no detectable efficacy
